Laboratory results published in patent publication US12324802B2, “Modulators of cystic fibrosis transmembrane conductance regulator” (Vertex Pharmaceuticals Incorporated, priority 2020, dated 2025).

Target: T1, CFTR (F508del/MF-HBE cells) (Homo sapiens, UniProt P13569, DEL508-508)
T1 construct: human bronchial epithelial (HBE) cells derived from CF subjects heterozygous for F508del and a minimal function CFTR mutation; endogenous in cells; host or cells: primary human bronchial epithelial cells from CF subjects (F508del/MF genotype)
T1 sequence (P13569 with tags, fused parts or gaps DEL508-508): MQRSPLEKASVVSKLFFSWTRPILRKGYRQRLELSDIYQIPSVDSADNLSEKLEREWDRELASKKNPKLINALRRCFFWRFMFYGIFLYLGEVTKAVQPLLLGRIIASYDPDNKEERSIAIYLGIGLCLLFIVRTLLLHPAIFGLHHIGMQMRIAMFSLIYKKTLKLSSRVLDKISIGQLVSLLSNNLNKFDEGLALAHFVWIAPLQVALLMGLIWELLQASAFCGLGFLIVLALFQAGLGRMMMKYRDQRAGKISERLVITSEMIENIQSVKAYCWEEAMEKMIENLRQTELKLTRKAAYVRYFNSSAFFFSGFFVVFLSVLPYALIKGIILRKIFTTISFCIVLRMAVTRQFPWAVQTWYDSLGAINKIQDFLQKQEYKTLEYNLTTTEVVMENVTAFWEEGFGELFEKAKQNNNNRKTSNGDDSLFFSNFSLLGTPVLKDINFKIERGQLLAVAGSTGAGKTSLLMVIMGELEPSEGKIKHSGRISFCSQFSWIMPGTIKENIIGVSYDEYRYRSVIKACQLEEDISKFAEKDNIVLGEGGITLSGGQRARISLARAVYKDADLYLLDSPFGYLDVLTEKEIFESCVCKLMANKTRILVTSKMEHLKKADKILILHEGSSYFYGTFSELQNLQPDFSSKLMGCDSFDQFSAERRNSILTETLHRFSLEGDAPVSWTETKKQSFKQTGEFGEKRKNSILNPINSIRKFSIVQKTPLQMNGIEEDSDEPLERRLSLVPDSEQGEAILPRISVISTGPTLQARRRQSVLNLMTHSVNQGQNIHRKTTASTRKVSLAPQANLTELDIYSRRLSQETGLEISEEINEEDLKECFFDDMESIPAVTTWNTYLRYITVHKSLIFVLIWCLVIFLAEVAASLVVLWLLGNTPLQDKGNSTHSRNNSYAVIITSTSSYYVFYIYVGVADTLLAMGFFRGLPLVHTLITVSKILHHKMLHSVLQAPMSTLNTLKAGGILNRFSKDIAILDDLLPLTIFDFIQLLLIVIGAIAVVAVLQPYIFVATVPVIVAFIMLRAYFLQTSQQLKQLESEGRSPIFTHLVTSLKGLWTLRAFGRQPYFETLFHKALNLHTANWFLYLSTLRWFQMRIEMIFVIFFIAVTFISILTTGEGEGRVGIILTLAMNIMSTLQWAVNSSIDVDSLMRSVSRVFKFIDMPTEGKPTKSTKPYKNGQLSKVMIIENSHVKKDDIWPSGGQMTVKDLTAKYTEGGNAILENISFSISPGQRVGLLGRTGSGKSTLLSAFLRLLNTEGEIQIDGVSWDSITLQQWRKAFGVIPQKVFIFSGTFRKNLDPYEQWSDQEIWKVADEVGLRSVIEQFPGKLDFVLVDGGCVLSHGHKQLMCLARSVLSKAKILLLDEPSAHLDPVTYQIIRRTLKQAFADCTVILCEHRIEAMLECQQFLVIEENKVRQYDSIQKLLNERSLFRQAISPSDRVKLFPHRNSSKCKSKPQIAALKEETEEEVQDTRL
Experiment: Ussing chamber assay of CFTR-mediated short-circuit currents (identification of potentiator compounds)
Assay type: cell-based
Details: CFTR-mediated ISC in F508del/MF-HBE cells; incubated 18-24 hours at 37° C. with 10 μM (14S)-8-[3-(2-{dispiro[2.0.2.1]heptan-7-yl}ethoxy)-1H-pyrazol-1-yl]-...-2,2,4-trione, 20% human serum
Summary of the method: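 F508del/minimal-function HBE cultures grown at air-liquid interface were incubated for 18–24 h at 37 °C with potentiator plus 10 μM corrector, in 20% human serum, and compounds stayed present during recording. Transepithelial ISC was recorded at 0 mV and 37 °C with 30 μM apical amiloride. CFTR current was taken as the peak response to 20 μM forskolin minus the steady state after a 20 μM inhibitor cocktail.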

Nc1cc(C(F)(F)F)c2nc1-c1nnc(o1)C(=O)CCCCC[C@@H]1CCCN21 [Compound 36, (12R)-20-amino-18-(trifluoromethyl)-22-oxa-3,4,16,21-tetraazatetracyclo[15.3.1.12,5.012,16]docosa-1(21),2,4,17,19-pentaen-6-one]
EC50: < 500 nM

Nc1cc(C(F)(F)F)c2nc1-c1nnc(o1)[C@@](O)(C(F)(F)F)CCCCCC1(CCC1)N2 [Compound 173, (6R)-17-amino-6,15-bis(trifluoromethyl)spiro[19-oxa-3,4,13,18-tetrazatricyclo[12.3.1.12,5]nonadeca-1(18),2,4,14,16-pentaene-12,1′-cyclobutane]-6-ol]
EC50: < 500 nM

Nc1cc(C(F)(F)F)c2nc1-c1nnc(o1)[C@@](O)(C(F)(F)F)CCCCCC(c1ccc(F)cc1)N2 (single isomer, unassigned) [Compound 182]
EC50: < 500 nM

Cc1cc(N)c2nc1N1CCC[C@H]1CCCCCC(O)(C(F)(F)F)C1=NN=C2O1 (single isomer, unassigned) [Compound 51]
EC50: < 500 nM

Nc1cc(C(F)(F)F)c2nc1-c1nnc(o1)C(O)(C(F)(F)F)CCCCC1CCCN21 (stereo not shown) [Compound 17, 19-amino-6,17-bis(trifluoromethyl)-21-oxa-3,4,15,20-tetraazatetracyclo[14.3.1.12,5.011,15]henicosa-1(20),2,4,16,18-pentaen-6-ol]
EC50: < 500 nM

Nc1cc(C2CCOCC2)c2nc1-c1nnc(o1)C(O)(C(F)(F)F)CCCCC[C@@H]1CCCN21 (mixture of isomers) [Compound 123, (12R)-20-amino-18-(oxan-4-yl)-6-(trifluoromethyl)-22-oxa-3,4,16,21-tetraazatetracyclo[15.3.1.12,5.012,16]docosa-1(21),2,4,17,19-pentaen-6-ol]
EC50: > 1000 nM

Nc1cc(C(F)(F)F)c2nc1-c1nnc(o1)[C@@](O)(C(F)(F)F)CCCCCC(c1ccccn1)N2 (stereo partly drawn) [Compound 166, (6R)-17-amino-12-(2-pyridyl)-6,15-bis(trifluoromethyl)-19-oxa-3,4,13,18-tetrazatricyclo[12.3.1.12,5]nonadeca-1(18),2,4,14,16-pentaen-6-ol]
EC50: < 500 nM

Nc1ccc2nc1-c1nnc(o1)C(O)(C(F)(F)F)CCCCC[C@@H]1CCCN21 (single isomer, unassigned) [Compound 72]
EC50: > 1000 nM

COC(=O)c1cc(N)c2nc1N1CCC[C@H]1CCCCCC(O)(C(F)(F)F)C1=NN=C2O1 (single isomer, unassigned) [Compound 170]
EC50: < 500 nM

Nc1cc(C(F)(F)F)c2nc1-c1nnc(o1)[C@@](O)(C(F)(F)F)CCCCCC(Cc1ccccc1)N2 (single isomer, unassigned) [Compound 180]
EC50: < 500 nM

Nc1cc(C(F)(F)F)c2nc1-c1nnc(o1)C(O)(C(F)(F)F)CCCC(=O)N1CCN2CC1 (single isomer, unassigned) [Compound 38, 5-amino-11-hydroxy-3,11-bis(trifluoromethyl)-21-oxa-1,8,9,16,22-pentaazatetracyclo[14.2.2.12,6.17,10]docosa-2,4,6(22),7,9-pentaen-15-one]
EC50: > 1000 nM

Nc1cc(C(F)(F)F)c2nc1-c1nnc(o1)[C@@](O)(C(F)(F)F)CCCCC[C@@H]1CCCN21 [Compound 4, (6R,12R)-20-amino-6,18-bis(trifluoromethyl)-22-oxa-3,4,16,21-tetraazatetracyclo[15.3.1.12,5.012,16]docosa-1(21),2,4,17,19-pentaen-6-ol]
EC50: < 500 nM

Nc1cc(C(F)(F)F)c2nc1-c1nnc(o1)C(O)(C(F)(F)F)c1cc(ccn1)CCC[C@@H]1CCCN21 (single isomer, unassigned) [Compound 86]
EC50: > 1000 nM

CN1CCCCCCC(O)(C2CC2)C2=NN=C(O2)c2nc1c(C(F)(F)F)cc2N (single isomer, unassigned) [Compound 79, 17-amino-6-cyclopropyl-13-methyl-15-(trifluoromethyl)-19-oxa-3,4,13,18-tetrazatricyclo[12.3.1.12,5]nonadeca-1(18),2,4,14,16-pentaen-6-ol]
EC50: > 1000 nM

Nc1cc(C(F)(F)F)c2nc1-c1nnc(o1)[C@@](O)(C(F)(F)F)CCCCCC(C1CC1)N2 (single isomer, unassigned) [Compound 191]
EC50: < 500 nM

Nc1cc(C2CCOC2)c2nc1-c1nnc(o1)C(O)(C(F)(F)F)CCCCC[C@@H]1CCCN21 (mixture of isomers) [Compound 126, (12R)-20-amino-18-(oxolan-3-yl)-6-(trifluoromethyl)-22-oxa-3,4,16,21-tetraazatetracyclo[15.3.1.12,5.012,16]docosa-1(21),2,4,17,19-pentaen-6-ol]
EC50: > 1000 nM

CP(C)(=O)c1cc(N)c2nc1N1CCC[C@H]1CCCCCC(O)(C(F)(F)F)C1=NN=C2O1 (single isomer, unassigned) [Compound 98]
EC50: > 1000 nM

Nc1cc(C(F)(F)F)c2nc1-c1nnc(o1)C(O)(C(F)(F)F)CCCOC[C@@H]1CCCN21 (stereo partly drawn) [Compound 147, (12S)-20-amino-6,18-bis(trifluoromethyl)-10,22-dioxa-3,4,16,21-tetraazatetracyclo[15.3.1.12,5.012,16]docosa-1(21),2,4,17,19-pentaen-6-ol]
EC50: < 500 nM

COc1cc2nc(c1N)-c1nnc(o1)C(O)(C(F)(F)F)CCCCC[C@@H]1CCCN21 (single isomer, unassigned) [Compound 160]
EC50: > 1000 nM

Nc1cc(C(F)(F)F)c2nc1-c1nnc(o1)C(O)(C(F)(F)F)c1cccc(c1)CCC[C@@H]1CCCN21 (single isomer, unassigned) [Compound 70]
EC50: < 500 nM

Nc1cc(C(F)(F)F)c2nc1-c1nnc(o1)[C@@](O)(C(F)(F)F)CCCCCC1(CCOC1)N2 (single isomer, unassigned) [Compound 208]
EC50: < 500 nM

Nc1cc(C(F)(F)F)c2nc1-c1nnc(o1)C(O)(C(F)(F)F)CCCCCCN2C1CCC1 (single isomer, unassigned) [Compound 73, 17-amino-13-cyclobutyl-6,15-bis(trifluoromethyl)-19-oxa-3,4,13,18-tetrazatricyclo[12.3.1.12,5]nonadeca-1(18),2,4,14,16-pentaen-6-ol]
EC50: < 500 nM

CN1CCC=CCCC(=O)C2=NN=C(O2)c2nc1c(C(F)(F)F)cc2N (mixture of isomers) [Compound 75, 17-amino-13-methyl-15-(trifluoromethyl)-19-oxa-3,4,13,18-tetrazatricyclo[12.3.1.12,5]nonadeca-1(18),2,4,9,14,16-hexaen-6-one]
EC50: < 500 nM

Nc1cc(C(F)(F)F)c2nc1-c1nnc(o1)[C@@](O)(C(F)(F)F)CCCCCC1(CCCCC1)N2 [Compound 193, (6R)-17-amino-6,15-bis(trifluoromethyl)spiro[19-oxa-3,4,13,18-tetrazatricyclo[12.3.1.12,5]nonadeca-1(18),2,4,14,16-pentaene-12,1′-cyclohexane]-6-ol]
EC50: < 500 nM

CN1CCCCCCC(O)(C(F)(F)F)C2=NN=C(O2)c2nc1c(C(F)(F)F)cc2N (single isomer, unassigned) [Compound 20, 17-amino-13-methyl-6,15-bis(trifluoromethyl)-19-oxa-3,4,13,18-tetrazatricyclo[12.3.1.12,5]nonadeca-1(18),2,4,14,16-pentaen-6-ol]
EC50: 500 to 1000 nM

CC1(C)CCCCC[C@](O)(C(F)(F)F)C2=NN=C(O2)c2nc(c(C(F)(F)F)cc2N)N1 [Compound 163, (6R)-17-amino-12,12-dimethyl-6,15-bis(trifluoromethyl)-19-oxa-3,4,13,18-tetrazatricyclo[12.3.1.12,5]nonadeca-1(18),2,4,14,16-pentaen-6-ol]
EC50: < 500 nM

Nc1cc(C(F)(F)F)c2nc1-c1nnc(o1)C(O)(C(F)(F)F)CCCCC[C@@H]1COCCN21 (single isomer, unassigned) [Compound 55]
EC50: > 1000 nM

Nc1cc(C(F)(F)F)c2nc1-c1nnc(o1)C(O)(CO)CCCCC[C@@H]1CCCN21 (single isomer, unassigned) [Compound 101]
EC50: < 500 nM

Nc1cc(C(F)(F)F)c2nc1-c1nnc(o1)[C@@](O)(C(F)(F)F)CCCCC[C@H]1CCCN21 (single isomer, unassigned) [Compound 7]
EC50: < 500 nM

Nc1cc(C(F)(F)F)c2nc1-c1nnc(o1)[C@@](O)(C(F)(F)F)CCCCCC(C(=O)O)N2 (single isomer, unassigned) [Compound 155]
EC50: > 1000 nM

Nc1cc(C(F)(F)F)c2nc1-c1nnc(o1)C(O)(C1CCOCC1)CCCCC[C@@H]1CCCN21 (single isomer, unassigned) [Compound 88]
EC50: < 500 nM

Nc1cc(S(=O)(=O)c2ccccc2)c2nc1-c1nnc(o1)C(O)(C(F)(F)F)CCCCC[C@@H]1CCCN21 (mixture of isomers) [Compound 133, (12R)-20-amino-18-(benzenesulfonyl)-6-(trifluoromethyl)-22-oxa-3,4,16,21-tetraazatetracyclo[15.3.1.12,5.012,16]docosa-1(20),2,4,17(21),18-pentaen-6-ol]
EC50: < 500 nM

CC1(C)CNc2nc(c(N)cc2C(F)(F)F)C2=NN=C(O2)[C@@](O)(C(F)(F)F)CCCO1 [Compound 186, (6R)-17-amino-11,11-dimethyl-6,15-bis(trifluoromethyl)-10,19-dioxa-3,4,13,18-tetrazatricyclo[12.3.1.12,5]nonadeca-1(17),2,4,14(18),15-pentaen-6-ol]
EC50: < 500 nM

Nc1cc(C(F)(F)F)c2nc1-c1nnc(o1)C(O)(C(F)(F)F)CCCCCCC(=O)N2 (single isomer, unassigned) [Compound 107, 18-amino-6-hydroxy-6,16-bis(trifluoromethyl)-20-oxa-3,4,14,19-tetrazatricyclo[13.3.1.12,5]icosa-1(19),2,4,15,17-pentaen-13-one]
EC50: > 1000 nM
